Experimental data as given in patent US20230345940A1, “INSECTICIDE” (Western Sydney University, priority 2020, published 2023).
Where two headings read alike, the source gives them in different places.

Tests used:
Type in all cases: in vivo
[1] = test system: two-spotted spider mite (TSM), Tetranychus urticae Koch; assay: Potter spray tower bioassay on leaf discs, two-spotted spider mite; conditions: 1.0% w/v; for mortality at 1 % strength: Tetranychus urticae, foliar
Text: Tetranychus urticae Koch, (Acari: Tetranychidae), commonly known as two-spotted spider mite is a cosmopolitan, phytophagous species, and an important agricultural pest in many temperate and sub-tropical countries. It is highly polyphagous, and feeds primarily on plant foliage. Tetranychus urticae Koch UWS 1 (organophosphate-susceptible) strain, originally obtained from Dr Grant Herron, NSW
Department of Primary Industries, Menangle NSW, Australia, but had been maintained at WSU Hawkesbury campus for approximately 18 years. They were reared on potted French beans, Phaseolus vulgaris var Redland Pioneer (in a constant temperature room maintained at 25±2° C., 65±5% RH and 14 h D: L photoperiod. The culture was reared on potted dwarf French bean (Phaseolus vulgaris L. var. Redland Pioneer) plants grown in a composted pinebark-based potting medium in a large (7.0 m (1)×6.0 m (w)×4.0 m (h)), pesticide-free, constant temperature room (28-30° C., 50% RH, 18:6, D:L). Only young gravid female two-spotted mites were selected for bioassay.
For the two-spotted spider mite, screening of each sample was conducted on 20-40 adult female mites, which were evenly distributed on 1-3 French bean leaf discs (25 mm diam.) contained in 90 mm diameter Petri dishes. The leaf discs were placed with their underside uppermost on moist absorbent cotton wool. Water was added to the dishes daily to prevent desiccation of the leaf discs and preventing the mites from escaping the leaf disc.
A 3.0 mL aliquot was applied to each Petri dish with a Potter precision spray tower as described by Herron et al., Potter spray tower bioassay of selected citrus pests to petroleum spray oil, Journal of the Australian Entomological Society 34, 253-263, 1995.
The average weight of the solution sprayed on each dish was calculated to be 5.385 mg/cm^2 or 0.05385 mg/cm^2 active ingredient (a.i.). Dishes were retained under laboratory conditions (24±2° C., 50±15% RH) for post-treatment observations. Mortality was recorded 24 h and 48 h after treatment (HAT). Death was recognised by the absence of movement when the test organisms were mechanically stimulated by prodding with a brush.
(§1) For each batch of investigations, control treatments were conducted, with methodology identical to other treatments. The control treatment solutions comprised 3 mL aliquots of 200 ppm Triton X-100 in distilled water and acetone or hexane at the same concentration as the test solutions. Investigations were discarded if control mortality exceeded 15%. Treatment mortality was calculated and is presented as corrected mortality, to account for any control mortality (Abbott WS., A method of computing the effectiveness of an insecticide. Journal of Economic Entomology, 18, 265-267, 1925).

[2] = test system: cotton aphid, Aphis gossypii; assay: Potter spray tower bioassay on leaf discs, cotton aphid; conditions: 1.0% w/v
Protocol: Aphis gossypii (susceptible strain) (Hemiptera: Aphididae), was established as a culture from material supplied by Dr Grant Herron, NSW Department of Primary Industries, Menangle NSW, Australia. Aphids were reared on potted Gossypium hirsutum L. (Malvaceae) grown from non-insecticide-treated conventional cotton seed, supplied by Dr Robert Mensah, NSW Department of Primary Industries, Narrabri NSW, Australia. The culture was maintained in a temperature-controlled greenhouse chamber set at 27±3° C. and 55±10% RH (relative humidity) and natural light. Only young adult females were selected for bioassay.
For the cotton aphid, parthenogenetic adult female aphids were collected from the cultures on cotton plants. Fifteen adults were transferred using a fine camel hair brush onto the lower side of a respective leaf disc 50 mm diameter mounted on 1.0% w/v agar in a plastic insect cage measuring 50 mm diameter×15 mm height plastic insect breeding 50 mm diameter×15 height (SPL Life Sciences, Korea).
Aliquots (3 mL) of the 1% w/v extracts were applied with a Potter Spray Tower for each treatment, as described above, and the spray was allowed to partially dry before the cage was covered with its lid and the sides of the cage sealed with Parafilm M®.
Dishes were retained under laboratory conditions (24±2° C., 50±15% RH) for post-treatment observations. […]

[3] = test system: neonate Helicoverpa armigera; assay: Potter spray tower bioassay on leaf discs, Helicoverpa neonates; conditions: 1.0% w/v; for mortality at 1 % strength: Helicoverpa armigera, foliar
Text: Helicoverpa armigera (Hubner) (Lepidoptera: Noctuidae), commonly known as the cotton bollworm or as heliothis, is a widespread species, with an extensive host range (see, e.g., https://www.cabi.org/isc/datasheet/26757). It typically feeds selectively on high protein plant parts, such as flowers, buds and fruits. Helicoverpa armigera was obtained as fresh eggs from AgBiTech Pty. Ltd, Glenvale QLD, Australia, or CSIRO Agriculture and Food, Cotton Research Institute, Myall Vale NSW, Australia.
Eggs (50-75) were transferred with a fine camel hair brush onto 90 mm Whatman No. 1 filter paper partially moistened with distilled water and thin slices from the artificial medium supplied by AgBiTech were placed on the filter paper as a source of food for the hatching caterpillars. The eggs were left to hatch under laboratory conditions of 25±3° C. and 65±10% RH. Hatching occurred within 24 h and bioassays were carried out on neonate larvae with an average weight of […].
For Helicoverpa, neonate larvae 4-12 h after hatching were transferred individually to a cotton plant leaf disc (35 mm diameter) mounted with its lower side uppermost on 1% agar in an Easy Grip Tissue Culture Dish dimensions 35×10 mm (Corning Incorporated, Corning NY, USA). […] Thus, each replicate comprised 4 neonates.
Following spraying, the small dishes were covered with a perforated plastic sheet and then placed in plastic insect cages previously described for aphid bioassays. The number of dishes sprayed per sample was 4-10. Dishes were retained under laboratory conditions (24±2° C., 50±15% RH) for post-treatment observations. Mortality counts were conducted at 24 and 48 HAT. Absence of the caterpillar movement when prodded with a fine brush was taken as the criterion of death.
as §1

Compound	Corrected percentage mortality TSM 24 HAT [1]	Corrected percentage mortality TSM 48 HAT [1]	Corrected percentage mortality Cotton aphid 24 HAT [2]	Corrected percentage mortality Helicoverpa 24 HAT [3]	Corrected percentage mortality Helicoverpa 48 HAT [3]	mortality at 1 % strength ([1]; read-out: Corrected percentage mortality TSM 24 HAT)	mortality at 1 % strength ([1]; read-out: Corrected percentage mortality TSM 48 HAT)	mortality at 1 % strength ([3]; read-out: Corrected percentage mortality Helicoverpa 24 HAT)	mortality at 1 % strength ([3]; read-out: Corrected percentage mortality Helicoverpa 48 HAT)
10′-oxo-8-methyl podopyrone [Fraction 44]	100.0%	100.0%	100.0%	100.0%	100.0%				
CCc1c(OC)oc(CCCCCCCCCC(C)=O)c(C)c1=O [Fraction 42, 10′-oxopodopyrone]						100%	100%	0%	0%
